In assay [1] the test system is Jagged1. The experiment in a line: Jagged1 mRNA by real time RT-PCR in UMR106 cells. The format is cell-based. The protocol:
UMR 106 cells were serum starved for 24 hours and then treated with a single dose of vehicle (controls) or PGE2 at a concentration of 10^-7 M. RNA was collected from both control and treated samples to assess the fold change in Jagged1 mRNA by real time RT-PCR analysis corrected for by beta-actin. FIG. 1B is a Western blot showing total protein that was collected from both control and treated samples exposed to Jagged1 antibody, C20. Positive control (+ctr) was provided by HS27a cells, a human stromal cell line with high levels of Jagged1 protein, while HS5 cells from a human stromal cell line with minimal Jagged1 levels were used as a negative control. […] UMR106 cells were serum starved for 24 hours. They were pre-treated with H89 for 30 minutes followed by a single dose of PGE2 at 10^-7 M or vehicle. RNA was collected from both control and treated samples to assess the fold change in Jagged1 RNA by real time RT-PCR analysis corrected for by β-actin. […] UMR106 cells were serum starved for 24 hours. […] Total protein was collected from both PGE2 and vehicle treated samples for Western blot analysis with Jagged1 antibody C-20. UMR106 cells were grown in DMEM supplemented with 1.5 g/l sodium bicarbonate, 10% FBS, penicillin (100 U/ml), streptomycin (100 U/ml). After three days of growth the cells were 80% confluent and media was replaced with serum-free media. After 24 hr in serum-free media, PGE2 was added in noted concentrations. UMR 106 cells were treated with the Protein Kinase A (PKA) inhibitors H89 (0.5 hr prior to PGE2 treatment), and myristoylated PKI (0.5 hr prior to PGE2 treatment). […] At the designated times, total RNA and protein were harvested. Total RNA was extracted and analyzed by real time RT-PCR, normalizing for β-actin expression and t=0. Total protein was analyzed by Western blots performed using the […] system (Invitrogen, Carlsbad, Calif.). Blots were probed with Jag1 c-20 antibody (Santa Cruz Biotechnology, Inc., Santa Cruz, Calif.), and the loading control was B-actin.

Assay [2] has as its system Jagged1. In words: Jagged1 protein by Western blot in UMR106 cells. Type of assay: cell-based. The following applies: UMR106 cells, PKI 200 μg/ml pre-treatment, then PGE2 10^−7 M. The protocol:
UMR 106 cells were serum starved for 24 hours and then treated with a single dose of vehicle (controls) or PGE2 at a concentration of 10^-7 M. RNA was collected from both control and treated samples to assess the fold change in Jagged1 mRNA by real time RT-PCR analysis corrected for by beta-actin. FIG. 1B is a Western blot showing total protein that was collected from both control and treated samples exposed to Jagged1 antibody, C20. Positive control (+ctr) was provided by HS27a cells, a human stromal cell line with high levels of Jagged1 protein, while HS5 cells from a human stromal cell line with minimal Jagged1 levels were used as a negative control. FIG. 2A is a graph showing that inhibition of PKA blocks PGE2-dependent increase of Jagged1 in UMR 106 cells. UMR106 cells were serum starved for 24 hours. They were pre-treated with H89 for 30 minutes followed by a single dose of PGE2 at 10^-7 M or vehicle. RNA was collected from both control and treated samples to assess the fold change in Jagged1 RNA by real time RT-PCR analysis corrected for by β-actin. […] UMR106 cells were serum starved for 24 hours. […] Total RNA was extracted and analyzed by real time RT-PCR, normalizing for β-actin expression and t=0. Total protein was analyzed by Western blots performed using the […] system (Invitrogen, Carlsbad, Calif.). […]

Entries after “also recorded” stand apart in the source; their conditions may differ.

Turning to `O=C(O)CC/C=C\CC[C@H]1[C@H](N2CCOCC2)C(=O)C[C@H]1OCc1ccc(-c2ccccc2)cc1` [AH23848], the “PGE2-induced expression of Jagged1” value with Jagged1 [1] (osteoblastic cells pretreated 30 minutes with 30 μM AH23848, then PGE2) was “did not inhibit”. As for “myristoylated PKA Inhibitory Peptide (14-22) [PKI]”, the “PGE2-dependent Jagged1 protein increase in presence of PKA inhibitor” value with Jagged1 [2] is listed as “blocked; also recorded: inhibited”. For the compound `O=S(=O)(NCCNC/C=C/c1ccc(Br)cc1)c1cccc2cnccc12` [H89], the “PGE2-dependent Jagged1 mRNA increase in presence of PKA inhibitor” value in the assay with Jagged1 [1] (UMR106 cells, H89 pre-treatment 30 minutes, then PGE2 10^−7 M) is listed as “blocked; also recorded: inhibited”.

`CCCC(=O)Nc1ncnc2c1ncn2[C@@H]1O[C@@H]2COP(=O)(O)O[C@H]2[C@H]1OC(=O)CCC` [dibutyryl-cAMP, n6 2′-0-dibutyryladenosine-3′, 5′-cyclic monophpsphate]: the “Jagged1 increase by cAMP analogs that activate PKA” value in the assay with Jagged1 [1] (UMR106 cells) is recorded as “sufficient to increase Jagged1”. On to `CCCC1([C@H](O)C/C=C/[C@H]2[C@H](O)CC(=O)[C@@H]2CCCCCCC(=O)OC)CCC1` [Butaprost, butaprost], for which the “PGE2-induced Jagged1 expression” value with Jagged1 [1] (UMR 106 cells, butaprost 10 μM) was “inhibited”.

These data come from patent US9394520B2, “Expansion of hematopoietic stem cells” (University of Rochester, priority 2006, dated 2016).
